# According to patent US11773420B2, “Process for enzymatic hydrolysis of lignocellulosic material and fermentation of sugars” (VERSALIS S.P.A., priority 2014, dated 2023):
# Tested on: cellulase enzyme cocktail TEC210
# Assay: Effect of gluconic acid on enzymatic hydrolysis of pretreated corn stover by TEC210
# Type: biochemical, Rasamsonia
# Conditions: for Glucose release (in %): 6% w/w dm, pH 4.5, 62° C., 50 hours, 5 mg TEC210/g dm
# Protocol: Twenty grams of pretreated corn stover were incubated in a 50 ml Greiner test tube for 50 hours at a dry matter level of 6% w/w, pH 4.5 at 62° C. in the presence of 5 mg of the cellulase enzyme cocktail TEC210 per gram of dry matter and in the presence of 0, 2, 4, 6, or 8 g/l gluconic acid to determine the inhibiting effect of gluconic acid on the hydrolysis of glucan in lignocellulosic feedstock. The experiment is performed at maximum oxygen saturation.
# Samples were taken after 50 hours of incubation and the samples were centrifuged for further analysis in an Eppendorf centrifuge type 5810 for 8 minutes at 4000 rpm. The glucose concentration was measured in the supernatant of each sample by means of HPLC using a Bio-Rad HPX87H column. The glucose release as presented in Table 3 is a direct measure for the enzymatic hydrolysis (glucan hydrolysis). A gluconic acid level of 2 g/l in the supernatant corresponds with 89 g/kg glucan in the lignocellulosic material. This can be calculated as described above with a density of 1.02 kg/I, a pellet factor of 2% and a glucan content of 21.6 g glucan/kg hydrolysate.
smiles,measurement,setting,value
"O=C(O)[C@H](O)[C@@H](O)[C@H](O)[C@H](O)CO [Gluconic acid, gluconic acid]",Glucose release (in %),gluconic acid added 2 g/l (89 g/kg glucan),90%
same,Glucose release (in %),gluconic acid added 4 g/l (178 g/kg glucan),82%
same,Glucose release (in %),gluconic acid added 6 g/l (267 g/kg glucan),79%
same,Glucose release (in %),gluconic acid added 8 g/l (356 g/kg glucan),77%
same,effect on glucan hydrolysis,higher concentrations of gluconic acid,negative effect on glucan hydrolysis
